In paper PMC11501026, “L-Arginine and asymmetric dimethylarginine (ADMA) transport across the mouse blood-brain and blood-CSF barriers: Evidence of saturable transport at both interfaces and CNS to blood efflux” (PLOS ONE, 2024):
Values joined by “and” are separate entries in the source; they are usually repeats but may differ in a detail not shown here. Equal values may be shown once. Read-outs that look alike come from different tables or passages of the source. Values belong to the molecule of their own block, whether it stands above or below them.

What was measured:
[1] = pH 7.4
Method: (§6) The lipophilicity of the radiolabelled test molecules was also measured by means of an octanol:saline partition coefficient. […] Centrifugation separated the hydrophobic (octanol) phase and hydrophilic (saline) phase and 100 μL samples in triplicate were taken for radioactive liquid scintillation counting on a Tricarb 2900TR liquid scintillation counter (Perkin-Elmer; Boston, MA, USA). The partition coefficient was calculated as the ratio of radioactivity in the octanol phase to the radioactivity in the aqueous phase.

[2] = test system: [^3H]-ADMA transport across the blood-brain and blood-CSF barriers; test: cross-inhibition, in situ perfusion: [^3H]-ADMA with 100 μM unlabelled L-arginine; assay type: in vivo, mouse; conditions: for inhibition of [^3H]-ADMA uptake: 100 μM unlabelled L-arginine; for inhibition at 100 µM: Mus musculus
Method: (§1) Self-inhibition experiments were also performed. […] Cross-competition experiments were also performed.
(§2) The percentage change in the RTissue uptake values achieved in the absence or presence of an unlabelled inhibitor can be calculated by means of Eq 4.
(§3) %change=RTissue−RInhibition/RTissue×100 Eq 4
(§4) We define RInhibition as the RTissue uptake in the presence of an inhibitor in the artificial plasma.
(§5) A decrease in the uptake of radiolabelled solute in the presence of unlabelled inhibitor is indicative of a saturable influx transport system. Conversely, an increase in the uptake of radiolabelled solute in the presence of unlabelled inhibitor is indicative of a saturable efflux transport system.

[3] = test system: [^3H]-arginine transport across the blood-brain and blood-CSF barriers; test: self-inhibition, in situ perfusion: [^3H]-arginine with 100 μM unlabelled L-arginine; assay type: in vivo, mouse
Method: as §1, §2, §3, §4, §5

CAT1 = conditions: HEK293 overexpressing CAT1; read-out: IC50, inhibition of CAT1-mediated cellular uptake of ADMA; cited from earlier work
[4] = 500 μM; isolated incubated rat choroid plexus; cited from earlier work
hCMEC/D3 cells = conditions: [^3H]-arginine 7 nM; hCMEC/D3 accumulation; cited from earlier work
[5] = capillary depletion analysis after in situ brain perfusion; assay type: in vivo, mouse; conditions: 10-minute perfusion; for Kin: single-time point analysis, corrected for [^14C]-sucrose
Method: The microvasculature within a sample of brain tissue can be separated from the brain parenchyma using capillary depletion analysis. Following perfusion, the remaining brain tissue after microdissection of the regions described above (typically 200–300 mg) underwent capillary depletion following a method modified for mouse. […]

[6] = in situ brain/choroid plexus perfusion: CNS uptake of [^3H]-arginine, [^3H]-ADMA and [^14C]-sucrose (multiple-time and single-time uptake analysis); conditions: for Kin: single-time point analysis, corrected for [^14C]-sucrose; for Kin / [^3H]-ADMA/ [^3H]-arginine, rate of uptake: 10-minute perfusion; for ability to cross the blood-brain and blood-CSF barriers: in situ perfusion; for Kp at 30 min, […] / Kp at […], […]: male, BALB/c, mouse
Method: All animals used in procedures were adult male BALB/c mice (between 23 g and 25 g) sourced from Harlan Laboratories, Oxon, UK, unless otherwise stated.
Animals were weighed immediately before the administration of the anaesthetic to ensure correct dosage. Domitor® (medetomidine hydrochloride) and Vetalar® (ketamine) were both purchased from Harlan Laboratories (Cambridge, UK). All animals were terminally anaesthetised (2 mg/kg Domitor® and 150 mg/kg Vetalar® injected intraperitoneally), and a lack of self-righting and paw-withdrawal reflexes (as surrogate indicators of consciousness) thoroughly checked prior to and during all procedures. If needed, additional anaesthetic was administered via the same route. […] At the end of the in situ brain perfusion procedure the animal was killed by decapitated under non-recovery anaesthesia. Animals were heparinised with 100 units heparin (in 0.9% m/v NaCl(aq), Harlan Laboratories; Oxon, UK), administered via the intraperitoneal route prior to surgery.
The in situ brain/choroid plexus perfusion method is designed to directly perfuse the brain with artificial plasma via a cannula placed in the heart. Artificial plasma is prepared to mimic the ionic composition of blood, and transporter inhibitors can be added in known concentrations and delivered to the brain for defined periods of time.
The left ventricle of the heart was cannulated with a 25G x 10 mm butterfly-winged needle connected to the perfusion circuit. […] The right atrium of the heart was sectioned to allow outflow of the artificial plasma. […] Radiolabelled and unlabelled test molecules were infused into the inflowing artificial plasma for periods up to 30 minutes.
At the set perfusion time a CSF sample was taken by inserting a pulled glass micropipette connected to silicon tubing and a syringe into the cisterna magna. Gentle suction was applied, and CSF was withdrawn. Only clear CSF samples were processed and taken for analysis. Samples contaminated with blood were discarded. The animal was then decapitated and the brain removed. Specific brain samples including the circumventricular organs (CVOs) were taken using a Leica S4E L2 stereomicroscope (Leica; Buckinghamshire, UK). The brain samples included the frontal cortex, caudate nucleus, occipital cortex, hippocampus, hypothalamus, thalamus, pons and cerebellum. The CVOs included the choroid plexus, pituitary gland and pineal gland.
All samples (brain regions, capillary depletion brain homogenate, pellet and supernatant, CVOs, CSF and plasma samples) were solubilised in 0.5 mL tissue solubiliser (Solvable; Perkin-Elmer; Boston, MA, USA). After incubating the samples at room temperature for 48 h, 4 mL scintillation fluid (Lumasafe®; Perkin-Elmer; Boston, MA, USA) was added to each before vigorous vortexing.

[7] = octanol:saline partition coefficient; conditions: pH 7.4; for octanol-saline partition coefficient: mean ± SEM of 3 tubes
Method: as §6

[8] = 100μM unlabelled L-arginine, CSF, 10 minutes

Molecule: N=C(N)NCCC[C@H](N)C(=O)O [L-arginine]
octanol-saline partition coefficient [1]: 0.00149±0.00016
inhibition of [^3H]-ADMA uptake ([2]; CSF, pineal gland, choroid plexus and pituitary gland, 10 minutes): up to 78.6%
effect on [^3H]-ADMA distribution [2, 8]: no effect
inhibition of [^3H]-ADMA uptake ([2]; brain regions, 10 minutes): up to 80.4%
inhibition at 100 µM ([2]; read-out: inhibition of [^3H]-ADMA distribution): ≤ 80.8%
inhibition of [^3H]-arginine uptake [3, 8]: 62.2%
inhibition of [^3H]-arginine uptake ([3]; 100μM unlabelled arginine, average of capillary depletion samples, 10 minutes): approximately 56%
inhibition of [^3H]-arginine uptake ([3]; 100μM unlabelled arginine, average of eight brain regions, 10-minute perfusion): approximately 67%
inhibition of [^3H]-arginine distribution ([3]; 100μM unlabelled arginine, choroid plexus, 10 minutes): 57.3%
inhibition of [^3H]-arginine distribution ([3]; 100μM unlabelled arginine, pineal gland, 10 minutes): 39.4%
inhibition of [^3H]-arginine distribution ([3]; 100μM unlabelled arginine, pituitary gland, 10 minutes): 48.1%
IC50 (CAT1): 227 µM

Molecule: CNC(=N)NCCC[C@H](N)C(=O)O [N^G-methyl-L-arginine]
effect on [^3H]-arginine uptake [4]: can be inhibited

Molecule: N=C(N)NCCC[C@H](N)C(=O)O [[^3H]-arginine, reference compound]
ability to cross brain capillary endothelial cell membranes compared to [^3H]-ADMA (38 nM) (hCMEC/D3 cells): more than -three to -five-fold
Kin ([5]; Homogenate): 3.97 ± 0.67 µL/min/g
Kin ([5]; Pellet): 0.70 ± 0.10 µL/min/g
Kin ([5]; Supernatant): 2.35 ± 0.42 µL/min/g
Kin ([6]; CSF): 1.08 ± 0.24 µL/min/g
Kin ([6]; Caudate nucleus): 5.40 ± 0.67 µL/min/g
Kin ([6]; Cerebellum): 5.10 ± 0.50 µL/min/g
Kin ([6]; Frontal Cortex): 5.84 ± 0.86 µL/min/g
Kin ([6]; Hippocampus): 4.72 ± 0.56 µL/min/g
Kin ([6]; Hypothalamus): 7.26 ± 1.76 µL/min/g
Kin ([6]; Occipital Cortex): 4.98 ± 0.72 µL/min/g
Kin ([6]; Pons): 5.58 ± 0.97 µL/min/g
Kin ([6]; Thalamus): 5.87 ± 1.07 µL/min/g
ability to cross the BBB in situ relative to [^3H]-ADMA ([6]; eight brain regions and capillary depletion samples): more than two-fold in most cases
ability to cross the blood-brain and blood-CSF barriers [6]: can cross the blood-brain barrier (BBB) and the blood-CSF barrier
Kp at 30 min, […] ([6]; CSF): 1.2 ± 0.251
Kp at […], […] ([6]; CSF): 0.0441 ± 0.0141
Kp at 30 min, […] ([6]; frontal cortex): 1.77 ± 0.316
Kp at […], […] ([6]; frontal cortex): 0.29 ± 0.0403
Kp at 30 min, […] ([6]; pons): ~1.85
Vi relative to [^14C]-sucrose space in the same experiment ([6]; multiple-time uptake analysis over 30 minutes, data not shown): up to 13 fold

Molecule: N=C(N)NCCC[C@H](N)C(=O)O [arginine]
inhibition at 100 µM ([2]; read-out: inhibition of [^3H]-ADMA (62.5 nM) transport): 64.3 to 80.8%

[^3H]-ADMA/ [^3H]-arginine, rate of uptake ([5]; Homogenate): 31.9%
Kin ([5]; Homogenate): 1.27 ± 0.56 µL/min/g
[^3H]-ADMA/ [^3H]-arginine, rate of uptake ([5]; Pellet): 11.4%
Kin ([5]; Pellet): 0.08 ± 0.20 µL/min/g
[^3H]-ADMA/ [^3H]-arginine, rate of uptake ([5]; Supernatant): 36.6%
Kin ([5]; Supernatant): 0.86 ± 0.16 µL/min/g
[^3H]-ADMA/ [^3H]-arginine, rate of uptake ([6]; CSF): 249.5%
uptake into the CSF (CSF to plasma) ([6]; CSF, […], data uncorrected for [^14C]-sucrose): approximately 4%
Kin ([6]; CSF): 2.70 ± 0.90 µL/min/g
[^3H]-ADMA/ [^3H]-arginine, rate of uptake ([6]; Caudate nucleus): 44.6%
Kin ([6]; Caudate nucleus): 2.41 ± 0.29 µL/min/g
[^3H]-ADMA/ [^3H]-arginine, rate of uptake ([6]; Cerebellum): 31.7%
Kin ([6]; Cerebellum): 1.62 ± 0.19 µL/min/g
[^3H]-ADMA/ [^3H]-arginine, rate of uptake ([6]; Frontal Cortex): 42.7%
Kin ([6]; Frontal Cortex): 2.49 ± 0.35 µL/min/g
[^3H]-ADMA/ [^3H]-arginine, rate of uptake ([6]; Hippocampus): 46.1%
Kin ([6]; Hippocampus): 2.17 ± 0.17 µL/min/g
[^3H]-ADMA/ [^3H]-arginine, rate of uptake ([6]; Hypothalamus): 41.9%
Kin ([6]; Hypothalamus): 3.04 ± 0.30 µL/min/g
[^3H]-ADMA/ [^3H]-arginine, rate of uptake ([6]; Occipital Cortex): 45.2%
Kin ([6]; Occipital Cortex): 2.25 ± 0.16 µL/min/g
[^3H]-ADMA/ [^3H]-arginine, rate of uptake ([6]; Pons): 44.2%
Kin ([6]; Pons): 2.46 ± 0.34 µL/min/g
[^3H]-ADMA/ [^3H]-arginine, rate of uptake ([6]; Thalamus): 35.8%
Kin ([6]; Thalamus): 2.10 ± 0.17 µL/min/g
distribution into the choroid plexus (tissue to plasma) ([6]; 30 minutes): approximately 40%
distribution into the choroid plexus (tissue to plasma) ([6]; peak at 10 minutes): approximately 240%
distribution (RBRAIN, tissue to plasma) corrected for [^14C]-sucrose ([6]; frontal cortex, 20 minutes): 27.64±4.30%
distribution (RBRAIN, tissue to plasma) corrected for [^14C]-sucrose ([6]; frontal cortex, 30 minutes): 10.41±2.77%
distribution (RBRAIN, tissue to plasma) corrected for [^14C]-sucrose ([6]; frontal cortex, […]): 9.86±1.43%
CNS-to-blood efflux ([6]; multiple-time uptake studies, loss of linearity): significant CNS-to-blood efflux
octanol-saline partition coefficient, single tube ([7]; Tube A, B or C): 0.00217 and 0.00237 and 0.00225
octanol-saline partition coefficient [7]: 0.00226±0.00006
octanol-saline partition coefficient ([7]; listed as 3H ADMA): 0.00226
Molecule: [^3H]-ADMA [reference compound]
ability to cross the blood-brain and blood-CSF barriers [6]: can cross the blood-brain barrier (BBB) and the blood-CSF barrier
